Source: paper PMC9490041, “Determinants of affinity, specificity, and phase separation in a supramodule from Post-synaptic density protein 95” (iScience, 2022)
Where two headings read alike, the source gives them in different places.

How the values were obtained:
Test in all cases: FP displacement (competition) of FITC-15 AA CRIPT by library peptide, IC50 and Ki
PDZ3 (PSD-95) = PDZ3 (PSD-95) (Homo sapiens, UniProt P78352)
PSG (PSD-95) = settings: for IC50: read-out: IC50 (µM), PSG
PSG G322A (PSD-95) = settings: for IC50: read-out: IC50 (µM), PSG G322A; for Ki: read-out: Ki (µM), PSG G322A
PSG G335A (PSD-95) = settings: for Ki: read-out: Ki (µM), PSG G335A; for IC50: read-out: IC50 (µM), PSG G335A
PSG G322A G335A (PSD-95) = settings: for IC50: read-out: IC50 (µM), PSG G322A G335A; for Ki: read-out: Ki (µM), PSG G322A G335A
[1] = Ki (µM), PDZ3, FP displacement of FITC-15 AA CRIPT probe by PSD library peptide, protein PDZ3
[2] = Ki, FP displacement of 5 nM FITC-15 AA CRIPT by non-labeled acetylated peptide, room temperature, Ki from IC50, technical triplicates, PDZ3
[3] = FP displacement of 5 nM FITC-15 AA CRIPT by non-labeled acetylated peptide, room temperature, Ki from IC50, technical triplicates, PSG
[4] = FP displacement of FITC-15 AA CRIPT probe by PSD library peptide, protein PSG (wild type)
[5] = read-out: Ki (µM), PSG, FP displacement of FITC-15 AA CRIPT probe by PSD library peptide, protein PSG (wild type)
[6] = FP displacement of FITC-15 AA CRIPT probe by PSD library peptide, protein PSG G322A
[7] = FP displacement of FITC-15 AA CRIPT probe by PSD library peptide, protein PSG G335A
[8] = FP displacement of FITC-15 AA CRIPT probe by PSD library peptide, protein PSG G322A G335A
[9] = Ki (µM), PDZ3, FP displacement of FITC-15 AA CRIPT probe by acetylated PSD library peptide
[10] = FP displacement of FITC-15 AA CRIPT probe by acetylated PSD library peptide
[11] = read-out: Ki (µM), PSG, FP displacement of FITC-15 AA CRIPT probe by acetylated PSD library peptide
[12] = FP displacement of FITC-15 AA CRIPT probe by acetylated PSD library peptide (P-13 to P0 plus extra N-terminal Y)

Sequence of PDZ3 (PSD-95) (P78352 313-393 limits assumed): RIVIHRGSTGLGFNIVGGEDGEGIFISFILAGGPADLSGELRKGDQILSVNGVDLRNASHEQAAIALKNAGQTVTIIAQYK

SMILES | Ki (PDZ3 (PSD-95); [1]) [µM] | Ki (PDZ3 (PSD-95); [2]) [µM] | Ki (PSG (PSD-95); [3]) [µM] | IC50 (PSG (PSD-95); [4]) [µM] | Ki (PSG (PSD-95); [5]) [µM] | IC50 (PSG G322A (PSD-95); [6]) [µM] | Ki (PSG G322A (PSD-95); [6]) [µM] | Ki (PSG G335A (PSD-95); [7]) [µM] | IC50 (PSG G322A G335A (PSD-95); [8]) [µM] | Ki (PSG G322A G335A (PSD-95); [8]) [µM] | IC50 (PDZ3 (PSD-95)) [µM] | Ki (PDZ3 (PSD-95); [9]) [µM] | IC50 (PSG (PSD-95); [10]) [µM] | Ki (PSG (PSD-95); [11]) [µM] | IC50 (PSG G322A (PSD-95); [10]) [µM] | Ki (PSG G322A (PSD-95); [10]) [µM] | IC50 (PSG G335A (PSD-95); [10]) [µM] | Ki (PSG G335A (PSD-95); [10]) [µM] | IC50 (PSG G322A G335A (PSD-95); [12]) [µM] | Ki (PSG G322A G335A (PSD-95); [10]) [µM] | also measured
CC(=O)N[C@@H](Cc1ccc(O)cc1)C(=O)N[C@@H](Cc1c[nH]cn1)C(=O)N1CCC[C@H]1C(=O)N[C@@H](Cc1c[nH]cn1)C(=O)N1CCC[C@H]1C(=O)N[C@@H](Cc1c[nH]cn1)C(=O)N1CCC[C@H]1C(=O)N[C@@H](Cc1c[nH]cn1)C(=O)N[C@@H](CO)C(=O)N[C@@H](Cc1c[nH]cn1)C(=O)N[C@@H](CO)C(=O)N[C@H](C(=O)N[C@H](C(=O)N[C@@H](CCCNC(=N)N)C(=O)N[C@H](C(=O)O)C(C)C)[C@@H](C)O)[C@@H](C)O [NLGN1] | 72 | < 75 | < 75 | 118 | 61 | 56 | 24 | 9 | 22 | 7.42 |  |  |  |  |  |  |  |  |  |  | 
CC(=O)N[C@@H](Cc1ccc(O)cc1)C(=O)N[C@@H](CC(N)=O)C(=O)N[C@@H](CO)C(=O)N[C@H](C(=O)N[C@@H](CC(N)=O)C(=O)N[C@@H](CC(C)C)C(=O)N1CCC[C@H]1C(=O)N[C@@H](Cc1c[nH]cn1)C(=O)NCC(=O)N[C@@H](Cc1c[nH]cn1)C(=O)N[C@@H](CO)C(=O)N[C@H](C(=O)N[C@H](C(=O)N[C@@H](CCCNC(=N)N)C(=O)N[C@H](C(=O)O)C(C)C)[C@@H](C)O)[C@@H](C)O)[C@@H](C)O [NLGNX] |  | < 75 |  |  |  |  |  |  |  |  | 62 | 40 | 184 | 78 | 72 | 31 | 39 | 14 | 43 | 15 | 
CC[C@H](C)[C@H](NC(=O)[C@H](CO)NC(=O)[C@@H]1CCCN1C(=O)[C@H](CCSC)NC(=O)[C@H](CCCCN)NC(=O)[C@H](CCCCN)NC(=O)[C@H](Cc1ccc(O)cc1)NC(=O)[C@@H](NC(=O)[C@H](CCCNC(=N)N)NC(=O)[C@H](CCCNC(=N)N)NC(=O)[C@H](Cc1ccc(O)cc1)NC(C)=O)C(C)C)C(=O)N[C@@H](CCC(=O)O)C(=O)N[C@@H](CO)C(=O)N[C@@H](CC(=O)O)C(=O)N[C@H](C(=O)O)C(C)C [NMDE1] | 172 |  |  | 463 | 243 | 153 | 66 | 95 | 156 | 54 |  |  |  |  |  |  |  |  |  |  | IC50 (PSG G335A (PSD-95); [7]): 267 µM
CC[C@H](C)[C@H](NC(=O)[C@@H]1CCCN1C(=O)[C@H](Cc1ccc(O)cc1)NC(C)=O)C(=O)NCC(=O)NCC(=O)N[C@@H](CO)C(=O)N[C@@H](CC(C)C)C(=O)N[C@@H](CC(N)=O)C(=O)N[C@@H](CO)C(=O)N[C@H](C(=O)N[C@H](C(=O)N[C@@H](CC(=O)O)C(=O)N[C@@H](CO)C(=O)N[C@@H](C)C(=O)N[C@@H](CC(C)C)C(=O)O)[C@@H](C)O)[C@@H](C)O [RGS14] |  | < 75 |  |  |  |  |  |  |  |  | 67 | 27 | 427 | 181 | 133 | 57 | 233 | 83 | 76 | 26 | 
CC[C@H](C)[C@H](NC(=O)[C@H](Cc1ccccc1)NC(=O)[C@H](CO)NC(=O)[C@H](CCCNC(=N)N)NC(=O)[C@H](CCCCN)NC(=O)[C@@H]1CCCN1C(=O)[C@H](CCCCN)NC(=O)[C@H](C)NC(=O)[C@H](C)NC(=O)[C@@H](NC(=O)[C@H](Cc1ccc(O)cc1)NC(C)=O)[C@@H](C)O)C(=O)N[C@@H](CCC(=O)O)C(=O)N[C@@H](CO)C(=O)N[C@@H](CC(N)=O)C(=O)N[C@H](C(=O)O)C(C)C [TANC1] |  | < 75 | < 75 |  |  |  |  |  |  |  | 58 | 23 | 67 | 28 | 21 | 9 | 24 | 8.45 | 12 | 4 | 
